Test results from paper PMC5437200, “Ionic liquids for the passive sampling of sulfonamides from water—applicability and selectivity study” (Analytical and Bioanalytical Chemistry, 2017).

Key:
[1] = ionization degrees of sulfonamides in the donor solution (calculated); format: physicochemical; settings: initial pH 5.64; calculated using equations in ref 39
[2] = octanol-water shake experiment for logKOW and logDOW; format: physicochemical; settings: for logD: n-octanol/ultrapure water pH 5.6, room temperature, read-out: LogD OW pH 5.6 (exp); for LogK OW (exp): n-octanol/ultrapure water, room temperature
[3] = design: method as in PMID 22579461; settings: cited from earlier work
[4] = stability (recovery) of ionic liquids inside the PASSIL dosimeter; format: physicochemical; settings: PES membranes, 14-day passive sampling, 20 °C; from IL mass before and after
Method: Passive sampling experiments were conducted analogously to previous studies. The passive dosimeter was made of plexiglass and contained two polyethersulfone (PES) membranes with their inner sides covered with the receiving phase—ionic liquid (separately for each of the seven tested ILs) of a total mass equal to 200 mg. Nylon (Phenomenex) and Teflon (Merck) membranes were also tested. The donor phase was 100 mL of water solution with an initial sulfonamide concentration of 2 μg mL^−1. The experimental setup was kept away from light radiation and at a constant temperature (20 °C). Each extraction lasted 14 days and the samples (1 mL) of the donor solution were collected every 2 days. The solution was stirred using a magnetic stirrer (1000 rpm), which was not renewed. After the experiment, the receiving phase was dissolved using 50 mL of acetonitrile. All the obtained samples (both from the donor and receiving phases) were analyzed by HPLC with a diode-array detector (DAD, Schimadzu, 272 nm). The analysis was performed using a Gemini 5-μm C18 column (Phenomenex). The injection volume was 10 μL. The flow rate was 1.5 mL min^−1. Acetonitrile (ACN) was used as the organic component of the mobile phase, and the aqueous component was an acetate buffer (5 mmol L^−1 CH3COONH4, pH = 4) with 5% of ACN. The mobile phase gradient was applied. The recovery of the receiving phase, the extraction efficiency, and the sampling rate (for [P666-14][N(CN)2]) were calculated for each analyte according to the equations presented in [30]. Moreover, micrographs using a HITACHI S-3400N scanning electron microscope (SEM) were taken to study the morphological appearance of the membranes covered with an ionic liquid [P666-14][N(CN)2].
The basic parameter of an applied ionic liquid is its physical stability inside the homemade dosimeter expressed by the IL recovery (%) calculated from the difference between ionic liquid masses before and after the passive sampling. The highest recovery (more than 90%) of ionic liquids was achieved by phosphonium-cation-based ILs and PES membranes (Fig. 3). […]

Row | α2 ionization degree [1] | α3 ionization degree (negatively charged form) [1] | logD [2] | LogK OW (exp) [2] | Structure (SMILES) | pKa2 [3] | pKa3 [3] | IL recovery [4]
1 | 99.9% | 35.5% | – | – | COc1cc(NS(=O)(=O)c2ccc(N)cc2)nc(OC)n1 [SDX, sulfadimethoxine] | 2.5 | 5.9 | –
2 | 100.0% | 58.0% | -0.34 | 0.01 | Cc1nnc(NS(=O)(=O)c2ccc(N)cc2)s1 [SMT, sulfamethiazole] | 1.8 | 5.5 | –
3 | 100.0% | 6.5% | 0.16 | 0.19 | Cc1ccnc(NS(=O)(=O)c2ccc(N)cc2)n1 [SMZ, sulfamerazine] | 1.8 | 6.8 | –
4 | 99.9% | – | 0.04 | 0.04 | Nc1ccc(S(=O)(=O)Nc2ccccn2)cc1 [SPD, sulfapyridine] | 2.4 | 8.2 | –
5 | 100.0% | 3.4% | -0.17 | −0.16 | Nc1ccc(S(=O)(=O)Nc2nccs2)cc1 [STZ, sulfathiazole] | 2.1 | 7.1 | –

The remaining lines, values behind:

Row | Structure (SMILES) | α2 ionization degree [1] | α3 ionization degree (negatively charged form) [1] | logD [2] | LogK OW (exp) [2] | pKa2 [3] | pKa3 [3] | IL recovery [4]
6 | Nc1ccc(S(=O)(=O)Nc2ccc(Cl)nn2)cc1 [SCP, sulfachloropyridazine] | 100.0% | 58.0% | 0 | 0.36 | 2.2 | 5.5 | –
7 | Nc1ccc(S(=O)(=O)Nc2ncccn2)cc1 [SDZ, sulfadiazine] | – | – | – | – | 1.8 | – | –
8 | CCCCCCCCCCCCCC[P+](CCCCCC)(CCCCCC)CCCCCC.FC(F)(F)C(F)(F)[P-](F)(F)(F)(C(F)(F)C(F)(F)F)C(F)(F)C(F)(F)F [[P666-14][(C2F5)3PF3], trihexyl(tetradecyl)phosphonium tri(pentafluoroethyl)trifluorophosphate] | – | – | – | – | – | – | 98.5%
9 | CCCCCCCCCCCCCC[P+](CCCCCC)(CCCCCC)CCCCCC.N#C[N-]C#N [[P666-14][N(CN)2], trihexyl(tetradecyl)phosphonium dicyanamide] | – | – | – | – | – | – | 92.4%
10 | CCCCCCCCCCCCCC[P+](CCCCCC)(CCCCCC)CCCCCC.O=S(=O)([N-]S(=O)(=O)C(F)(F)F)C(F)(F)F [[P666-14][TFN], trihexyl(tetradecyl)phosphonium bis(trifluoromethylsulfonyl)imide] | – | – | – | – | – | – | 98.9%
